# Laboratory results: patent US20190142886A1, “Ecklonia cava extract and a pharmaceutical composition for preventing or treating vascular diseases comprising the same as an active ingredient” (Gachon University of Industry-Academic Cooperation …, priority 2017, published 2019)
# Key:
# fat cell = experiment: Fat cell size in obesity-induced ob/ob mouse model (H&E staining); format: in vivo; conditions: ob/ob mice, oral 2.5 mg/kg, 42 days; vs saline group, p<0.005
# From the text: (§1) 6-week-old male ob/ob mice were selected. Weight gain was induced by a general diet for 6 weeks. Then, the effect of the PPB prepared in Example 1 was investigated.
# (§2) Particularly, the mice were adapted to the animal room environment for 1 week. Then, the mice were divided into two groups, which were fed with a general diet for 42 days (6 weeks). These two groups were the control (saline group) that was fed with a general diet and orally administered with saline and the experimental group (PPB group) that was fed with a general diet and orally administered with PPB at the dose of 2.5 mg/kg.
# The adipose tissues were obtained from the mice of the control group and the PPB-treated experimental group prepared in Example <4-1>, and the changes of fat cell size were observed.
# Particularly, the adipose tissues obtained from the mice of the control and experimental groups were made into a paraffin block, which was sectioned in the thickness of 7 μm, followed by hematoxylin-eosin staining (H&E staining). The stained tissues were photographed with Axio Imager Z1 upright microscopy system and the cell size was measured by using ImageJ 1.50i software.
# liver tissue = experiment: Fat accumulation in liver tissue of ob/ob mouse (Oil-red-O); format: in vivo; conditions: ob/ob mice, oral 2.5 mg/kg, 42 days; vs saline group, p<0.005
# From the text: as §1, §2
# The liver tissues were obtained from the mice of the control group and the experimental group prepared in Example <4-1>. The obtained liver tissues were made into a frozen block, which was sectioned in the thickness of 10 μm. The tissue sections were stained with 0.375% (w/v) Oil-red-O powder. The stained tissues were photographed with Axio Imager Z1 upright microscopy system and the fat accumulation area was measured by using ImageJ 1.50i software.
# [1] = test system: mouse-derived vascular endothelial cells (SVEC4-10); experiment: PPB in vascular endothelial cell death model (palmitic acid), MTT assay; format: cell-based; conditions: 0.25 mM palmitic acid, 24 hours
# Description: Mouse-derived vascular endothelial cells (SVEC4-10) in DMEM (Dulbecco's Modified Eagle Medium) supplemented with 10% fetal bovine serum and 1% antibiotics (penicillin/streptomycin) were cultured in a 37° C., 5% CO2 incubator. To obtain sufficient cells, the cells were cultured in 100 Ø plastic dishes. When the cells were cultured until the bottom of the dish was covered 80% by the cells, the adhered cells were detached using trypsin/EDTA solution and then sub-cultured.
# The mouse-derived vascular endothelial cells (SVEC4-10) obtained in Example <5-1> were treated with 0.25 mM palmitic acid, leading to the construction of a vascular endothelial cell death model (in vitro).
# The cells were treated with PPB at different concentrations for 24 hours. 24 hours later, MTT assay was performed to confirm the number of survived cells. From the result, the effect of PPB on the survival of vascular endothelial cells in the presence of palmitic acid was analyzed.
# [2] = test system: Plasminogen activator inhibitor type-1 (PAI-1); experiment: Plasma PAI-1 level in ob/ob mouse by ELISA kit; format: in vivo; conditions: ob/ob mice, oral 2.5 mg/kg, 42 days; compared with saline control group
# From the text: as §1, §2
# In order to measure PAI-1, the biomarker for improving blood circulation, blood was collected from the mouse, and the plasma PAI-1 level was measured by using an ELISA kit.
structure (smiles),measurement,setting,value
"Oc1cc(O)cc(Oc2c(O)cc(Oc3cc(O)cc(Oc4c(O)cc(O)c5c4Oc4c(O)cc(O)c(-c6c(O)cc(O)c7c6Oc6c(O)cc(O)c(Oc8cc(O)cc(O)c8)c6O7)c4O5)c3)cc2O)c1 [PPB, pyrogallol-phloroglucinol-6,6-bieckol]",fat cell size,fat cell,significantly decreased
same,fat accumulation area in liver tissue,liver tissue,significantly decreased
same,number of survived cells,"[1]; 5 ug/ml, vs control non-treated with PPB",not much different
same,survival rate of vascular endothelial cells,[1]; 10 ug/ml,significantly increased
same,blood PAI-1 level,[2],reduced
